Measurements reported in patent publication US20240059688A1, “CONOLIDINE ANALOGUES AS SELECTIVE ACKR3 MODULATORS FOR THE TREATMENT OF CANCER” (Luxembourg Institute of Health (LIH), priority 2020, published 2024).
Marks after values point to notes of the source that are not given here.

How the values were obtained:
Type in all cases: cell-based
ACKR4 = biological target: T1, ACKR4 (Homo sapiens, UniProt Q9NPB9); assay: NanoBiT β-arrestin-1 recruitment, receptor selectivity panel, ACKR4; conditions: higher concentrations (3 μM, 10 μM); FIG. 3 sections B and C
T1 construct: expressed in transfected cells; host or cells: U87
T1 sequence (Q9NPB9 1-350): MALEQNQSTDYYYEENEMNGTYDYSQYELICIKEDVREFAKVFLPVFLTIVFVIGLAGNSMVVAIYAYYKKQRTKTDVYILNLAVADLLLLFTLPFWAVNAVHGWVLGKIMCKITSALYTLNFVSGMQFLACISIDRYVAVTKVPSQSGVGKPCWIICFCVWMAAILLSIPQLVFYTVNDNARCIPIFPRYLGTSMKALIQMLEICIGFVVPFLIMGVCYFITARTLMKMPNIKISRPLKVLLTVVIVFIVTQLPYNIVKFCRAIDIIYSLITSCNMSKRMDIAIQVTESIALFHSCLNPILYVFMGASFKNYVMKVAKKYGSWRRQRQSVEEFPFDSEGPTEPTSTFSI
Description: (§1) To further assess the selectivity profile of the compounds of the invention towards ACKR3, the ability to activate the 21 classical and 4 atypical chemokines receptors and related receptors was tested using the NanoBiT assay based β-arrestin-1 recruitment described previously. The 4 classical opioid receptors described above were also included in the experimental setup. The compounds WW-1 (conolidine) and WW-12 were tested at three different concentrations, 1 μM, 3 μM and 10 μM.
This possible off-target effect was further characterized by comparing the ability of the two molecules to activate receptors ACKR4, CX3CR1 and CCR3 with reference ligands for the receptors, namely CCL19, CX3CL1 and CCL13.
Ligand-induced β-arrestin recruitment to chemokine and opioid receptors was monitored by NanoLuc complementation assay (NanoBiT, Promega). […] Ligand-induced, β-arrestin to GPCRs was evaluated with a Mithras LB940 luminometer (Berthold Technologies, running on MicroWin 2010 5.19 software (Mikrotek Laborsysteme)) for 20 minutes.
(§2) For single dose screening experiments on all chemokine receptors(FIG. 3), the results are represented as percentage of signal monitored with 100 nM of one known agonist chemokine listed in the IUPHAR repository of chemokine receptor ligands which was added as positive control.

KOR = KOR (Homo sapiens, UniProt P41145); assay: KOR calcium mobilization agonist/antagonist screen (CHO-RD-HGA16 cells); set-up: host or cells: CHO-RD-HGA16; conditions: single concentration; for Emax: CHO-RD-HGA16, agonist screen, control agonist U69,593; for KOR Calcium % U69, 593 Inhibition: antagonist screen, vs EC60 of U69,593
KOR, sequence (P41145 whole entry): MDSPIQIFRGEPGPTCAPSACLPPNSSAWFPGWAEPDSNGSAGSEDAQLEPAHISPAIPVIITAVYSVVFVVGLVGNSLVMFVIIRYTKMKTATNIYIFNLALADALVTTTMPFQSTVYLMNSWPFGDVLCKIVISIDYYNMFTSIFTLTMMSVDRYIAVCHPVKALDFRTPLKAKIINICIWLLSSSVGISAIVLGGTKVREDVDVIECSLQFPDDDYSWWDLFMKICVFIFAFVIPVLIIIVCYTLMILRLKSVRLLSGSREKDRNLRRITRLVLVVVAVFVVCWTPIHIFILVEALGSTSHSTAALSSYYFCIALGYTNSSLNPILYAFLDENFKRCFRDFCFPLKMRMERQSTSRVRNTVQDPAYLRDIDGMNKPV
Description: Compounds were evaluated for kappa (KOR), mu (MOR), and delta (DOR) opioid receptor agonist and antagonist activity in three individual cell lines overexpressing Gαq16 (CHO-RD-HGA16, Molecular Devices) and the human kappa, mu, and delta opioid receptors, respectively. The day before the assay, cells were plated into 96-well black-walled assay plates at 30,000 cells/well in Ham's F12 supplemented with 10% fetal bovine serum, and 100 units of penicillin and streptomycin. The cells were incubated overnight at 37° C., 5% CO2. Prior to the assay, Calcium 5 dye (Molecular Devices) was reconstituted according to the manufacturer's instructions. The reconstituted dye was diluted 1:40 in pre-warmed (37° C.) assay buffer (1×HBSS, 20 mM HEPES, 2.5 mM probenecid, pH 7.4 at 37° C.). Growth medium was removed and the cells were gently washed with 100 μL of pre-warmed (37° C.) assay buffer. The cells were incubated for 45 minutes at 37° C., 5% CO2 in 200 μL of the diluted Calcium 5 dye. For the agonist screen, a single concentration of each test compound and receptor-specific controls (U69,593, DAMGO, and DPDPE for KOR, MOR, and DOR, respectively) were prepared at 10× the desired final concentration in 1% DMSO/assay buffer, aliquoted into a 96-well polystyrene plate, and warmed to 37° C. After the dye-loading incubation period, pretreatment solution was added to each well (25 μL of 9% DMSO/assay buffer) and, after 15 min, the plate was read with a FlexStation II (Molecular Devices). Calcium-mediated changes in fluorescence were monitored every 1.52 seconds over a 60 second time period, with the FlexStation II adding 50 μL of test compounds at the 19 second time point (excitation at 485 nm, detection at 525 nm). Peak kinetic reduction (SoftMax, Molecular Devices) relative fluorescence units (RFU) were used to calculate % control agonist Emax with the equation % Emax=(test compound RFU/control agonist RFU)×100. For the antagonist screens, the same procedure was followed except that the pretreatment solution consisted of the test compounds (prepared at […] the desired final concentration in 9% DMSO/assay buffer) and the FlexStation added the EC60 concentration (prepared at 10× the desired final concentration in 1% DMSO/assay buffer) of each respective control agonist. Peak RFU were used to calculate % control EC60 inhibition with the equation % inhibition=((EC60 RFU−test compound RFU)/EC60 RFU)×100. When IC50 determinations were made, the same antagonist screen procedure was followed except that cells were pretreated with 8-pt concentration-response curves of the test compounds. Peak RFU were plotted against the log of compound concentration using non-linear regression analysis to generate IC50 values (GraphPad Prism). Each test sample was analyzed in duplicate in two independent experiments.

ACKR3 = ACKR3 (Homo sapiens, UniProt P25106); assay: NanoBiT β-arrestin-1 recruitment, receptor selectivity panel, ACKR3; set-up: expressed in transfected cells; host or cells: U87; conditions: for modulation of ACKR3 in comparison with opioid receptor reference molecules (β-arrestin1 recruitment): NanoBiT, ACKR3 versus MOR, DOR, KOR, NOP, FIG. 5; for activation of ACKR3 (β-arrestin-1 recruitment) in receptor panel: concentration of 1 μM, FIG. 3 section A
ACKR3, sequence (P25106 whole entry): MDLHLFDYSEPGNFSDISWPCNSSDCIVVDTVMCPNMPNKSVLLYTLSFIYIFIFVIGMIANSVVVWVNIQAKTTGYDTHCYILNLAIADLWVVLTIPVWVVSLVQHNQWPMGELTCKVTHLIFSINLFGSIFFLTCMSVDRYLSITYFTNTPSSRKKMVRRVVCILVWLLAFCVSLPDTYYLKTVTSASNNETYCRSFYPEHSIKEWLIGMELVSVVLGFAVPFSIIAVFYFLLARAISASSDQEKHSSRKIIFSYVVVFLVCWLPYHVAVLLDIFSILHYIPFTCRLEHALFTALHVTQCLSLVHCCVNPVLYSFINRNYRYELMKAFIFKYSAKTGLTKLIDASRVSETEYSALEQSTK
ACKR3, sequence (P49407 whole entry partner): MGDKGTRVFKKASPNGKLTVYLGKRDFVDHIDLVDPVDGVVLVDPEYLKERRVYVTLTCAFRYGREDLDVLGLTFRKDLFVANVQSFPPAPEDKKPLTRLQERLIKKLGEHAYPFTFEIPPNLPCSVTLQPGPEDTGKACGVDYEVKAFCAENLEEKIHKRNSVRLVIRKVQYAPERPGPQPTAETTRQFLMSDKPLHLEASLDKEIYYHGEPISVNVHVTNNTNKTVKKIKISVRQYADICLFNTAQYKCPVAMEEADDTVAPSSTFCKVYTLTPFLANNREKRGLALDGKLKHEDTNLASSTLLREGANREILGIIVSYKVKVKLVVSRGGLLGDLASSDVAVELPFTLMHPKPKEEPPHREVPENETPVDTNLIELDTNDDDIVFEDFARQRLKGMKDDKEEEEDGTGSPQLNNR
Description: as §1
The ability of the compounds of the invention to activate ACKR3 and classical opioid receptors with reference synthetic molecules and approved pain medications such as morphine, fentanyl or buprenorphine that are known to modulate the classical opioid receptors MOR, DOR, KOR and NOP was also tested in NanoBiT based β-arerstin1 recruitment assay. […] The results are depicted in FIG. 5.
Ligand-induced β-arrestin recruitment to chemokine and opioid receptors was monitored by NanoLuc complementation assay (NanoBiT, Promega). In brief, 1.2×10^6 U87 cells were plated in 10-cm culture dishes and 48 hours later co-transfected with pNBe vectors encoding GPCRs (ACKR3, MOR, DOR, KOR, or NOP) C-terminally tagged with SmBiT and human β-arrestin-1 (arrestin-2) or β-arrestin-2 (arrestin-3) N-terminally fused to LgBiT. 48 hours post-transfection cells were harvested, incubated 25 minutes at 37° C. with Nano-Glo Live Cell substrate diluted 200-fold and distributed into white 96-well plates (5×10^4 cells per well). Ligand-induced, β-arrestin to GPCRs was evaluated with a Mithras LB940 luminometer (Berthold Technologies, running on MicroWin 2010 5.19 software (Mikrotek Laborsysteme)) for 20 minutes.
as §2

| activation of ACKR4 (β-arrestin-1 recruitment) in receptor panel (ACKR4) | Emax (KOR) | KOR Calcium % U69, 593 Inhibition (KOR) | modulation of ACKR3 in comparison with opioid receptor reference molecules (β-arrestin1 recruitment) (ACKR3) | activation of ACKR3 (β-arrestin-1 recruitment) in receptor panel (ACKR3) | Structure (SMILES) |
| --- | --- | --- | --- | --- | --- |
| weak activation | 9% | 11% | specific ACKR3 activators | activated ACKR3 | C/C=C1/CN2CC[C@H]1C(=O)c1[nH]c3ccccc3c1C2 [WW-1, (4E,5R)-4-ethylidene-1,4,5,7-tetrahydro-2,5-ethanoazocino[4,3-b]indol-6(3H)-one] |
| weak activation | 7% | 69** % | specific ACKR3 activators | activated ACKR3 | C/C=C1/CN(CCCCC)CC[C@H]1C(=O)c1cc2ccccc2[nH]1 [WW-12, [(3E,4R)-3-ethylidene-1-pentylpiperidin-4-yl](1H-indol-2-yl)methanone] |
